In patent US20170334899A1, “AMINO-SUBSTITUTED ISOTHIAZOLES” (Bayer Pharma Aktiengesellschaft, priority 2014, published 2017):
Values joined by “and” are separate entries in the source; they are usually repeats but may differ in a detail not shown here. Identical values can stand only once.

Legend:
[1] = system: human cervical tumor cell line HeLa (ATCC CCL-2); test: SAC-Formation - Paclitaxel-Induced Assay; format: cell-based; details: Homo sapiens, HeLa, 24 h, HeLa cells, paclitaxel 0.05 μM, test range 0.005 μM-20 μM, read-out: IC50 [mol/l] SAC-Formation - Paclitaxel-Induced Assay
Outline: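 Read-out is high-content imaging of anti-phospho-H3 Ser10 (mitosis) and Hoechst 33342 (DNA, cell number), with decreased mitotic fraction marking checkpoint breakthrough. Compounds (0.005–20 μM) and 0.05 μM paclitaxel co-added to overnight-plated HeLa for 24 h at 37° C; four-parameter Hill fit.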

CDK2/CycE = target: T1, CDK2/CycE (Homo sapiens, UniProt P24941); test: CDK2/CycE kinase assay (TR-FRET); format: biochemical; details: avg, read-out: CDK2 avg (IC50 [mol/l])
T1 construct: GST; purchased ProQinase GmbH (Freiburg, Germany); host or cells: insect cells (Sf9)
Outline: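 Read-out is a TR-FRET 665/620 nm emission ratio from EDTA-stopped reactions detected with anti-pRB(pSer807/pSer811), Eu-labelled anti-mouse IgG and streptavidin-XL665, scaled between no-enzyme and uninhibited wells. Reaction: Sf9-expressed GST-CDK2/GST-CycE, 15 min compound preincubation, 10 μM ATP, 0.75 μM biotin-peptide, 25 min, 22° C., pH 8.0 Tris buffer.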

SMILES	IC50 [1]	IC50 (CDK2/CycE)
Cc1nsc(Nc2cnc(C(F)(F)F)cn2)c1C(=O)Nc1ccc(OCCN)nc1 [Example 197, N-[6-(2-aminoethoxy)pyridin-3-yl]-3-methyl-5-{[5-(trifluoromethyl)pyrazin-2-yl]amino}-1,2-thiazole-4-carboxamide]	0.6 µM	> 20 µM
Cc1nsc(Nc2cncc(C(F)(F)F)n2)c1C(=O)Nc1cccc(S(C)(=O)=O)c1 [Example 194, 3-methyl-N-[3-(methylsulfonyl)phenyl]-5-{[6-(trifluoromethyl)pyrazin-2-yl]amino}-1,2-thiazole-4-carboxamide]	0.29 µM	> 20 µM and 7.8 µM
Cc1nsc(Nc2cnc3ccccc3n2)c1C(=O)Nc1ccccc1S(C)(=O)=O [Example 188, 3-methyl-N-[2-(methylsulfonyl)phenyl]-5-(quinoxalin-2-ylamino)-1,2-thiazole-4-carboxamide]	10 µM	> 20 µM
Cc1nsc(Nc2cncc(C(F)(F)F)n2)c1C(=O)Nc1ccc(OC2CCNCC2)nc1 [Example 13, 3-Methyl-N-[6-(piperidin-4-yloxy)pyridin-3-yl]-5-{[6-(trifluoromethyl)pyrazin-2-yl]-amino}-1,2-thiazole-4-carboxamide]	13 µM	≥ 20 µM
Cc1nsc(Nc2cnc(C(F)(F)F)cn2)c1C(=O)Nc1ccc(OCC2CCN(C(=O)OC(C)(C)C)CC2)nc1 [Example 227, tert-butyl 4-{[(5-{[(3-methyl-5-{[5-(trifluoromethyl)pyrazin-2-yl]amino}-1,2-thiazol-4-yl)carbonyl]amino}pyridin-2-yl)oxy]methyl}piperidine-1-carboxylate]	0.3 µM	> 20 µM
CCN(CC)CCNC(=O)c1cccc(NC(=O)c2c(C)nsc2Nc2cc(C#N)ccn2)c1 [Example 174, 5-[(4-cyanopyridin-2-yl)amino]-N-(3-{[2-(diethylamino)ethyl]carbamoyl}phenyl)-3-methyl-1,2-thiazole-4-carboxamide]	0.55 µM	> 20 µM
Cc1nsc(Nc2cc(C#N)ccn2)c1C(=O)Nc1ccc(C(=O)OC(C)(C)C)cc1 [Example 182, tert-butyl 4-[({5-[(4-cyanopyridin-2-yl)amino]-3-methyl-1,2-thiazol-4-yl}carbonyl)amino]benzoate]	0.019 µM	> 20 µM
CNC(=O)c1ccc(NC(=O)c2c(C)nsc2Nc2cnc3ccccc3n2)cc1F [Example 207, N-[3-fluoro-4-(methylcarbamoyl)phenyl]-3-methyl-5-(quinoxalin-2-ylamino)-1,2-thiazole-4-carboxamide]	0.076 µM	> 20 µM
COc1ccc(NC(=O)c2c(C)nsc2Nc2cnc3ccccc3n2)c(CC#N)n1 [Example 235, N-[2-(cyanomethyl)-6-methoxypyridin-3-yl]-3-methyl-5-(quinoxalin-2-ylamino)-1,2-thiazole-4-carboxamide]	1.5 µM	> 20 µM
Cc1nsc(Nc2cc(C#N)ccn2)c1C(=O)Nc1ccc(NC(=O)OC(C)(C)C)cc1 [Example 177, tert-butyl {4-[({5-[(4-cyanopyridin-2-yl)amino]-3-methyl-1,2-thiazol-4-yl}carbonyl)amino]phenyl}carbamate]	11 µM	> 20 µM
Cc1nsc(Nc2cc(C#N)ccn2)c1C(=O)Nc1cccc(C(=O)OC(C)(C)C)c1 [Example 239, tert-butyl 3-[({5-[(4-cyanopyridin-2-yl)amino]-3-methyl-1,2-thiazol-4-yl}carbonyl)amino]benzoate]	0.63 µM	> 20 µM
Cc1nsc(Nc2cnc(C(F)(F)F)cn2)c1C(=O)Nc1ccc(OCCNC(=O)OC(C)(C)C)nc1 [Example 192, tert-butyl {2-[(5-{[(3-methyl-5-{[5-(trifluoromethyl)pyrazin-2-yl]amino}-1,2-thiazol-4-yl)carbonyl]amino}pyridin-2-yl)oxy]ethyl}carbamate]	0.18 µM	> 20 µM
Cc1nsc(Nc2cnc(C(F)(F)F)cn2)c1C(=O)Nc1cccc(S(C)(=O)=O)c1 [Example 195, 3-methyl-N-[3-(methylsulfonyl)phenyl]-5-{[5-(trifluoromethyl)pyrazin-2-yl]amino}-1,2-thiazole-4-carboxamide]	0.52 µM	> 20 µM
Cc1nsc(Nc2cncc(C(F)(F)F)n2)c1C(=O)Nc1ccc(OC2CCN(C(C)C)CC2)nc1 [Example 218, N-{6-[(1-isopropylpiperidin-4-yl)oxy]pyridin-3-yl}-3-methyl-5-{[6-(trifluoromethyl)pyrazin-2-yl]amino}-1,2-thiazole-4-carboxamide]	3.9 µM	> 20 µM
Cc1nsc(Nc2ccc(C#N)cn2)c1C(=O)Nc1cccc(N)c1 [Example 180, N-(3-aminophenyl)-5-[(5-cyanopyridin-2-yl)amino]-3-methyl-1,2-thiazole-4-carboxamide]	4.3 µM	> 20 µM
CNC(=O)c1ccc(NC(=O)c2c(C)nsc2Nc2ccc(C#N)cn2)cc1F [Example 208, 5-[(5-cyanopyridin-2-yl)amino]-N-[3-fluoro-4-(methylcarbamoyl)phenyl]-3-methyl-1,2-thiazole-4-carboxamide]	0.041 µM	> 20 µM
Cc1nsc(Nc2cncc(C(F)(F)F)n2)c1C(=O)Nc1ccc(OCCNC(=O)OC(C)(C)C)nc1 [Example 191, tert-butyl {2-[(5-{[(3-methyl-5-{[6-(trifluoromethyl)pyrazin-2-yl]amino}-1,2-thiazol-4-yl)carbonyl]amino}pyridin-2-yl)oxy]ethyl}carbamate]	0.037 µM	18 µM
Cc1nsc(Nc2cncc(C(F)(F)F)n2)c1C(=O)Nc1ccc(OC2CCN(C)CC2)nc1 [Example 219, 3-methyl-N-{6-[(1-methylpiperidin-4-yl)oxy]pyridin-3-yl}-5-{[6-(trifluoromethyl)pyrazin-2-yl]amino}-1,2-thiazole-4-carboxamide]	0.66 µM	> 20 µM
Cc1nsc(Nc2cncc(C(F)(F)F)n2)c1C(=O)Nc1ccc(OC2CCN(CCF)CC2)c(F)c1 [Example 223, N-(3-fluoro-4-{[1-(2-fluoroethyl)piperidin-4-yl]oxy}phenyl)-3-methyl-5-{[6-(trifluoromethyl)pyrazin-2-yl]amino}-1,2-thiazole-4-carboxamide]	0.11 µM	> 20 µM

More lines, in order of falling IC50 [1], values ahead:

IC50 [1]	IC50 (CDK2/CycE)	SMILES
20 µM	> 20 µM	Cc1nsc(Nc2cnc3ccccc3n2)c1C(=O)Nc1ccc(NCCC(=O)OC(C)(C)C)nc1 [Example 236, tert-butyl N-[5-({[3-methyl-5-(quinoxalin-2-ylamino)-1,2-thiazol-4-yl]carbonyl}amino)pyridin-2-yl]-beta-alaninate]
4.7 µM	> 20 µM	Cc1nsc(Nc2cnc3ccccc3n2)c1C(=O)Nc1ccc(NC(=O)C(C)(C)C)cc1 [Example 185, N-{4-[(2,2-dimethylpropanoyl)amino]phenyl}-3-methyl-5-(quinoxalin-2-ylamino)-1,2-thiazole-4-carboxamide]
3.8 µM	> 20 µM	Cc1nsc(Nc2cnc3ccccc3n2)c1C(=O)Nc1cccc(NC(=O)C(C)(C)C)c1 [Example 186, N-{3-[(2,2-dimethylpropanoyl)amino]phenyl}-3-methyl-5-(quinoxalin-2-ylamino)-1,2-thiazole-4-carboxamide]
2.1 µM	≥ 20 µM	Cc1nsc(Nc2cnc3ccccc3n2)c1C(=O)Nc1ccc(OC2CCNCC2)nc1 [Example 19, 3-Methyl-N-[6-(piperidin-4-yloxy)pyridin-3-yl]-5-(quinoxalin-2-ylamino)-1,2-thiazole-4-carboxamide]
0.42 µM	≥ 20 µM	Cc1nsc(Nc2cncc(C(F)(F)F)n2)c1C(=O)Nc1ccc(OC2CCN(CC(F)(F)F)CC2)nc1 [Example 16, 3-Methyl-N-(6-{[1-(2,2,2-trifluoroethyl)piperidin-4-yl]oxy}pyridin-3-yl)-5-{[6-(trifluoromethyl)pyrazin-2-yl]amino}-1,2-thiazole-4-carboxamide]
0.14 µM	> 20 µM	Cc1nsc(Nc2cncc(C(F)(F)F)n2)c1C(=O)Nc1ccc(OCCNC(=O)OC(C)(C)C)c(F)c1 [Example 216, tert-butyl [2-(2-fluoro-4-{[(3-methyl-5-{[6-(trifluoromethyl)pyrazin-2-yl]amino}-1,2-thiazol-4-yl)carbonyl]amino}phenoxy)ethyl]carbamate]
0.13 µM	> 20 µM	Cc1nsc(Nc2cnc3ccccc3n2)c1C(=O)Nc1ccc(F)c(C(N)=O)c1 [Example 202, N-(3-carbamoyl-4-fluorophenyl)-3-methyl-5-(quinoxalin-2-ylamino)-1,2-thiazole-4-carboxamide]
0.075 µM	> 20 µM	CC(=O)Nc1cc(NC(=O)c2c(C)nsc2Nc2cnc(C(F)(F)F)cn2)ccc1F [Example 206, N-(3-acetamido-4-fluorophenyl)-3-methyl-5-{[5-(trifluoromethyl)pyrazin-2-yl]amino}-1,2-thiazole-4-carboxamide]
0.07 µM	> 20 µM	Cc1nsc(Nc2ccc(C#N)cn2)c1C(=O)Nc1cccc(C(=O)OC(C)(C)C)c1 [Example 240, tert-butyl 3-[({5-[(5-cyanopyridin-2-yl)amino]-3-methyl-1,2-thiazol-4-yl}carbonyl)amino]benzoate]
